Assay [1] deals with T1, human RAD54 (Homo sapiens, UniProt Q92698).
T1 sequence (Q92698 1-747): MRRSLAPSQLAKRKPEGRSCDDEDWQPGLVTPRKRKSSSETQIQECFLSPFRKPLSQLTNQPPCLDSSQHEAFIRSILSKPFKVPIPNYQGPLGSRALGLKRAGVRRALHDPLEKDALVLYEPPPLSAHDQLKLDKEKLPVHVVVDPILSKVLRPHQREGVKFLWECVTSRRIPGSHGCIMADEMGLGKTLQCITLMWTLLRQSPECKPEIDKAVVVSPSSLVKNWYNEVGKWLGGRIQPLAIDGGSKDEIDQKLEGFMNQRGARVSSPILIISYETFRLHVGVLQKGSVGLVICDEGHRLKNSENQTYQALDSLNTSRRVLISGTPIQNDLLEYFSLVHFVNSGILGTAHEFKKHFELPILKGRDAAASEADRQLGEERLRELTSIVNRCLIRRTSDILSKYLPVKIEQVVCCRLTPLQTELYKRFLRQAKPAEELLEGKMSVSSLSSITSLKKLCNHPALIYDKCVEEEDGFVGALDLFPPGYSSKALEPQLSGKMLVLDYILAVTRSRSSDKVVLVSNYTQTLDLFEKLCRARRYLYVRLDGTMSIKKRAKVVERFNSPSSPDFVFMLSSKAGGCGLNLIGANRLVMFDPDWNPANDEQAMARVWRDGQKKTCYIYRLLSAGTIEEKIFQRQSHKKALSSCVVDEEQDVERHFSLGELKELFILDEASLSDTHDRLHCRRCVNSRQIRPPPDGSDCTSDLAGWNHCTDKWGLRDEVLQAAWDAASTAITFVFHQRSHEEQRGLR
Nature of the assay: biochemical.

Assay [2] has as its target T1, human RAD54. Nature of the assay: malachite green phosphate ATPase assay. In kind it is biochemical.
The target in assay [3] is T1, human RAD54. Nature of the assay: biochemical. Conditions: read-out: % inh.
The target of assay [4] is T1, human RAD54. Put plainly: biochemical. The source holds these as a separate data set.

Some results are limits rather than exact numbers.

The values that follow come from publication doi:10.1101/614586v1 (biorxiv, 2019).

For `Cc1ccc(C)n1CCN1CCNCC1` [54h^o-1], at human RAD54 [1], the IC50 is greater than 60 µM.

`CC1(C)Cc2c(ccc3ccccc23)C(CCN2CCCCC2)=N1` [54i-2] showed a concentration for half-maximal inhibition (IC50) at human RAD54 [2] of 16 ± 3 µM. The inhibition at 10 µM on human RAD54 [3] is 18%.

Turning to `Cc1nc2c(=O)n(C)c(=O)nc-2n(C)n1` [54i^P-1a], on human RAD54 [3], the inhibition at 10 µM was 44%.

Consider `CCCc1nc2c(=O)n(C)c(=O)nc-2n(C)n1` [54i^P-1b], for which, at human RAD54 [3], the inhibition at 10 µM was determined as 61%.

For the compound `CCn1nc(-c2ccccc2C)nc2c(=O)n(C)c(=O)nc1-2` [54i^P-1c], the inhibition at 10 µM at human RAD54 [3] worked out at 70%.

`CCn1nc(-c2ccc(C)cc2)nc2c(=O)n(C)c(=O)nc1-2` [54i^P-1d]: the inhibition at 10 µM on human RAD54 [3] amounted to 49%.

With `CCn1nc(-c2ccc(C(F)F)cc2)nc2c(=O)n(C)c(=O)nc1-2` [54i^P-1e], at human RAD54 [3], the inhibition at 10 µM is 79%.

As to `Cc1ccc(C)n1-c1ccc(C(=O)O)c(O)c1` [54i^P-2a], at human RAD54 [3], the inhibition at 10 µM amounted to 50%.

With `Cc1ccc(C)n1-c1ccc(SCC(=O)O)cc1` [54i^P-2b], the inhibition at 10 µM on human RAD54 [3] was 70%.

For the compound `CS(=O)(=O)C1=NSC2=NC(=O)C(=Cc3ccc(SCc4ccc(Cl)cc4)o3)C(=N)N21` [54i^P-3], the inhibition at 10 µM at human RAD54 [3] was found to be 27%.

For the compound `NC=O` [54i^P-4], the inhibition at 10 µM at human RAD54 [3] came out at 36%.

`CC1(C)c2ccccc2N(CCc2nnn[nH]2)c2ccccc21` [tricyc-1]: the results for the IC50 at human RAD54 [2] and against human RAD54 [4] were greater than 130 µM and 129 ± 19.7 µM, respectively.

Consider `CC1(C)c2cc(Cl)ccc2N(CCc2nnn[nH]2)c2ccc(Cl)cc21` [tricyc-2], for which, on human RAD54 [2], it took 3.07 ± 0.7 µM to reach half-maximal inhibition (IC50).

On human RAD54 [2], `CC1(C)c2cc(Br)ccc2N(CCc2nnn[nH]2)c2ccc(Br)cc21` [tricyc-3] came in with an IC50 of 7.65 ± 1.06 µM.
